Assays:
[1] = system: NSC-34 motor neuron cells; experiment: Differentiation of NSC-34 motor neuron cells (neurite outgrowth); assay type: cell-based, mouse; details: IGF-1 added to Neurobasal differentiation media
Experimental: NSC-34 cells (Cellutions, Cat. No. CLU 140) are a hybrid cell line produced by fusion of motor neuron enriched embryonic mouse spinal cord cells with mouse neuroblastoma, resulting in a motor neuron-like cell. NSC-34 cells were grown in high glucose DMEM with 10% FBS and 1% antibiotics. […] In some examples, NSC-34 cells were cultured in Neurobasal medium with 50-100 ng/ml IGF-1. Cells were imaged with a fluorescent microscope and images were quantified using ImageJ 1.47d with the NeuronJ plugin.

C2C12 skeletal myoblasts = experiment: Differentiation of C2C12 myoblasts to myotubes on graphene films or SiO2; assay type: cell-based, mouse
Experimental: C2C12 skeletal myoblasts (ATCC Cat. No. CRL 1772) were cultured on graphene films or SiO2 in high glucose DMEM supplemented with 10% fetal bovine serum (FBS) and 1% antibiotics. […] Cells were cultured for 5 days and stained with primary antibody MF20 (myosin heavy chain, MHC) overnight at 4° C., followed by goat anti-mouse secondary antibody and the nuclear stain 4′, 6-diamidino-2-phenylindole (DAPI) for 2 hours at 37° C. Cells were imaged with a fluorescent microscope and images were quantified using ImageJ 1.47d.
Fusion index was calculated as the ratio of the number of nuclei in myocytes with two or more nuclei versus the total number of nuclei. Cell density was determined by counting the number of nuclei in a particular area. Statistical analysis was performed using one-way analysis of variance and values are reported as mean±standard error of the mean.

[2] = IGF-1 (50 ng/ml) added to differentiation medium, graphene films, vs differentiation medium alone

insulin-like growth factor-1 [IGF-1]
neurite length per neuron [1]: significantly increased | number of neurites per neuron [1]: did not affect | sum of neurite length [1]: significantly increased | cell density (C2C12 skeletal myoblasts; [2]): significantly increased | fusion index (C2C12 skeletal myoblasts; [2]): significantly increased | myotube formation (C2C12 skeletal myoblasts; [2]): significantly increased | myotube formation (C2C12 skeletal myoblasts; increasing the amount of IGF-1 in the differentiation medium from 1-500 ng/ml): increased myotube formation
